Assay results taken from US20070093511A1, “Anhydrous Crystal Form of Valaciclovir Hydrochloride” (priority 2001, published 2007).
Where a name gives a salt, the structure may show the parent alone.

How the values were obtained:
[1] = Water content by Karl Fischer titration; type: physicochemical; conditions: Example 11 analysis
Protocol: The water of hydration content is measured by the Karl Fischer method which is well known in the art and is described in the 1990 US Pharmacopoeia at pages 1619-1621, and the European Pharmacopoeia, second edition (1992) part 2, sixteenth fascicule at v. 3.5-6.1. Water content (by Karl Fisher titration): 0.61% w/w

[2] = Thermogravimetric analysis (TGA); type: physicochemical; conditions: from 182-310° C., scan rate 10° C. per minute, associated with melting/decomposition
Protocol: Thermogravimetric analysis was carried out on a Perkin-Elmer Pyris-1 TGA system. Scan rate of 10° C. per minute. Sample size 3.757 mg. The TGA trace is provided at FIG. 6. Weight loss from 182-310° C.=42.97% w/w associated with melting/decomposition

[3] = Stability and hygroscopicity of the crystal form (stated, no method); type: physicochemical; conditions: stated as advantage
[4] = compared with acyclovir; cited from earlier work

Water content (by Karl Fisher titration) [1] [% w/w]	Weight loss [2] [% w/w]	Hygroscopicity [3]	Stability of crystal form [3]	Structure (SMILES)	Bioavailability [4]
0.61	42.97	essentially non-hygroscopic	stable	CC(C)[C@H](N)C(=O)OCCOCn1cnc2c(=O)[nH]c(N)nc21 [Form 2 Valaciclovir Hydrochloride, valaciclovir hydrochloride]	–
–	–	–	–	CC(C)[C@H](N)C(=O)OCCOCn1cnc2c(=O)[nH]c(N)nc21 [valaciclovir]	much improved bioavailability
